{
  "source": "patent US20050095239A1",
  "about": "“Methods and compositions for treating Alzheimer's disease” (priority 2002, published 2005)",
  "key": {"[1]": {"system": "ABCA1 protein expression in C6 cells", "assay": "ABCA1 immunoblot of C6 glioma cells", "format": "cell-based, rat", "method": "(§1) Cell culture. Mouse Neuro2A (neuroblastoma) cells and human IMR-32 (neuroblastoma) cells (American Type Culture Collection, Manassas, Va.) were cultured in Optimem (Gibco, Invitrogen Life Technologies, Carlsbad, Calif.) supplemented with 10% fetal bovine serum. Mouse BV-2 (microglial) and rat C6 (glioma) cells were cultured in Dulbecco's modified Eagle's medium supplemented with 5% fetal bovine serum. Mouse primary neuronal cultures were generated as described (27). Briefly, cortical neurons were isolated from embryonic day 16 Swiss-Webster mice. Individual cortices was dissociated in calcium-free saline and plated on poly-D-lysine (Sigma) coated tissue culture dishes at the density of 1.5×10^6 cell/ml. The neurons were grown in Neurobasal Media (Gibco BRL) plus 10% fetal bovine serum. One hour after plating, medium with serum was replaced with medium containing B-27 supplement (Gibco BRL). Western blot. Cells were lysed in 250 mM sucrose, 10 mM HEPES (pH 7.4), supplemented with complete protease inhibitors (Sigma Chemical Co). Protein levels were quantified by the BCA assay (Pierce, Rockford, Ill.), and samples of 50 μg were held in SDS loading buffer with 2.5% β-mercaptoethanol for 30 min at room temperature, but were not boiled prior to loading. Proteins were separated by SDS-6% polyacrylamide gel electrophoresis and transferred to nitrocellulose. Blots were probed with the anti-ABC1 antibodies (1:1000), and developed with anti-rabbit linked HRP secondary antibody by chemiluminescence."}, "[2]": {"system": "secreted Aβ42 from Neuro2A cells", "assay": "Aβ42 ELISA of conditioned medium of Neuro2A cells", "format": "cell-based, mouse", "conditions": "for increase of secreted Aβ42 over vehicle-treated cells: with retinoic acid, one day, 22-hydroxycholesterol 10 uM", "method": "(§2) Cell culture. Mouse Neuro2A (neuroblastoma) cells and human IMR-32 (neuroblastoma) cells (American Type Culture Collection, Manassas, Va.) were cultured in Optimem (Gibco, Invitrogen Life Technologies, Carlsbad, Calif.) supplemented with 10% fetal bovine serum. Mouse BV-2 (microglial) and rat C6 (glioma) cells were cultured in Dulbecco's modified Eagle's medium supplemented with 5% fetal bovine serum. Mouse primary neuronal cultures were generated as described (27). Briefly, cortical neurons were isolated from embryonic day 16 Swiss-Webster mice. Individual cortices was dissociated in calcium-free saline and plated on poly-D-lysine (Sigma) coated tissue culture dishes at the density of 1.5×10^6 cell/ml. The neurons were grown in Neurobasal Media (Gibco BRL) plus 10% fetal bovine serum. One hour after plating, medium with serum was replaced with medium containing B-27 supplement (Gibco BRL).\n(§3) RNA inhibition. Double stranded RNA (RNAi) was generated homologous to a region of the 5′ end of the coding portion of the mouse ABCA1 gene, 5′-AAGTGGCCTGGCCTCTCTTTA-3′ (SEQ ID NO:2) (Dharmacon Research Inc, Lafayette, Colo.). As a negative control, we used a sequence directed against the human hsp70 gene. Neuro2A cells were transfected with the RNAi with Effectene transfection reagent (Qiagen, Valencia, Calif.) according to manufacturer protocol. After an overnight exposure, RNAi complex was removed, cells were washed one time in growth medium, and the media was replaced with Neurobasal medium with 2% B-27 with or without LXR/RXR agonists for one day. Conditioned media was collected and analyzed for Aβ.\n(§4) Aβanalyses. Cells were cultured in Neurobasal medium with 2% B-27 for one day in the presence or absence of LXR/RXR agonists. Aβ40 and Aβ42 levels in the conditioned medium were determined by ELISA, with BNT77 as a capture antibody and BA23-HRP for Aβ40 or BC05-HRP for Aβ42 as detection antibodies (28). Aβ antibodies for ELISA were the generous gift of Takeda Chemical Industries."}, "[3]": {"system": "ABCA1 protein expression in mouse primary neurons", "assay": "ABCA1 immunoblot of mouse primary neurons treated with retinoic acid and 22-hydroxycholesterol", "format": "cell-based", "method": "as §1, with “Blots were probed with the anti-ABC1 antibodies (1:1000), and developed with anti-rabbit linked HRP secondary antibody by chemiluminescence.” left out"}, "[4]": {"system": "ABCA1 protein expression in human neuroblastoma IMR-32 cells", "assay": "ABCA1 immunoblot of IMR-32 cells", "format": "cell-based", "conditions": "with retinoic acid", "method": "as §1, with “Blots were probed with the anti-ABC1 antibodies (1:1000), and developed with anti-rabbit linked HRP secondary antibody by chemiluminescence.” left out"}, "[5]": {"system": "ABCA1 protein expression in Neuro2A cells", "assay": "ABCA1 immunoblot of Neuro2A cells treated with retinoic acid and oxysterols", "format": "cell-based, mouse", "conditions": "for ABCA1 induction, densitometric analysis / increase of ABCA1 protein (immunoblot) compared with 22-hydroxycholesterol: 5 μM oxysterol with 5 μM retinoic acid; for increase of ABCA1 protein (immunoblot) compared with 22-hydroxycholesterol: one or two days", "method": "as §1"}, "[6]": {"system": "secreted Aβ40 from Neuro2A cells", "assay": "Aβ40 ELISA of conditioned medium of Neuro2A cells", "format": "cell-based, mouse", "conditions": "for increase of secreted Aβ40 over vehicle-treated cells: with retinoic acid, one day, 22-hydroxycholesterol 10 uM", "method": "as §2, §3, §4"}, "[7]": {"system": "ABCA1 protein expression in BV-2 cells", "assay": "ABCA1 immunoblot of BV-2 microglial cells", "format": "cell-based, mouse", "method": "as §1"}, "[8]": {"system": "LXRα or LXRβ isoforms", "conditions": "references 37, 38; cited from earlier work"}, "[9]": {"conditions": "5 μM retinoic acid and 5 μM 22-hydroxycholesterol together"}, "[10]": {"conditions": "cells treated only with buffer or with the RNAi named"}, "[11]": {"conditions": "retinoic acid and 22-hydroxycholesterol vs vehicle (ethanol), absence of RNAi"}, "[12]": {"conditions": "1 μM TO-901317 in the presence of 5 μM retinoic acid"}},
  "data": [
    {"smiles": "CC(C)CC[C@@H](O)[C@@H](C)[C@H]1CC[C@H]2[C@@H]3CC=C4C[C@@H](O)CC[C@]4(C)[C@H]3CC[C@]12C", "note": "[22-hydroxycholesterol, 22(R)-hydroxycholesterol]", "values": [
      {"measurement": "ABCA1 expression", "setting": "[1]; [9]", "value": "increased"},
      {"measurement": "secreted Aβ42 after 22-hydroxycholesterol/retinoic acid treatment, in words", "setting": "[2]; [10]", "value": "significantly increased"},
      {"measurement": "increase of Aβ42, control cells of the RNAi experiment", "setting": "[2]; [11]", "value": 62, "unit": "%"},
      {"measurement": "increase of secreted Aβ42 over vehicle-treated cells", "setting": "[2]", "value": 65, "unit": "%"},
      {"measurement": "ABCA1 expression with increasing concentration", "setting": "[3]; 22-hydroxycholesterol together with retinoic acid, from 100 nM to 10 uM", "value": "further increased ABCA1 expression"},
      {"measurement": "ABCA1 protein compared to untreated cells", "setting": "[3]; one-day treatment, 100 nM 22-hydroxycholesterol together with 100 nM retinoic acid", "value": "up-regulation of ABCA1 protein"},
      {"measurement": "ABCA1 levels", "setting": "[4]", "value": "detectable ABCA1 levels only after induction"},
      {"measurement": "ABCA1 induction, densitometric analysis", "setting": "[5]", "value": "equivalent extent"},
      {"measurement": "expression of ABCA1", "setting": "[5]; 10 μM retinoic acid and 22-hydroxycholesterol together, untreated cells low or undetectable", "value": "clearly apparent"},
      {"measurement": "up-regulation of ABCA1 in cells treated only with the one compound", "setting": "[5]; compound alone, some experiments", "value": "weak up-regulation"},
      {"measurement": "secreted Aβ40 after 22-hydroxycholesterol/retinoic acid treatment, in words", "setting": "[6]; [10]", "value": "significantly increased"},
      {"measurement": "increase of Aβ40, control cells of the RNAi experiment", "setting": "[6]; [11]", "value": 29, "unit": "%"},
      {"measurement": "increase of secreted Aβ40 over vehicle-treated cells", "setting": "[6]", "value": 29, "unit": "%"},
      {"measurement": "ABCA1 expression", "setting": "[7]; [9]", "value": "increased"}
    ]},
    {"smiles": "CC(C)CCC[C@@H](C)[C@H]1CC[C@H]2[C@@H]3C(=O)C=C4C[C@@H](O)CC[C@]4(C)[C@H]3CC[C@]12C", "note": "[7-ketocholesterol]", "values": [
      {"measurement": "ABCA1 induction, densitometric analysis", "setting": "[5]", "value": "only half that level"},
      {"measurement": "increase of ABCA1 protein (immunoblot) compared with 22-hydroxycholesterol", "setting": "[5]", "value": "not as efficacious"}
    ]},
    {"smiles": "CC(C)[C@@H](O)CC[C@@H](C)[C@H]1CC[C@H]2[C@@H]3CC=C4C[C@@H](O)CC[C@]4(C)[C@H]3CC[C@]12C", "note": "[24S-hydroxycholesterol]", "values": [
      {"measurement": "ABCA1 expression through interactions with LXRα or LXRβ", "setting": "[8]", "value": "induces ABCA1 expression"}
    ]},
    {"smiles": "C[C@H](CCCC(C)(C)O)[C@H]1CC[C@H]2[C@@H]3CC=C4C[C@@H](O)CC[C@]4(C)[C@H]3CC[C@]12C", "note": "[25-hydroxycholesterol]", "values": [
      {"measurement": "ABCA1 induction, densitometric analysis", "setting": "[5]", "value": "equivalent extent"},
      {"measurement": "increase of ABCA1 protein (immunoblot) compared with 22-hydroxycholesterol", "setting": "[5]", "value": "nearly as well as 22-hydroxycholesterol"}
    ]},
    {"smiles": "O=S(=O)(c1ccccc1)N(CC(F)(F)F)c1ccc(C(O)(C(F)(F)F)C(F)(F)F)cc1", "note": "[TO-901317]", "values": [
      {"measurement": "ABCA1 expression", "setting": "[1]; 1 μM TO-901317 alone", "value": "increased"},
      {"measurement": "ABCA1 expression", "setting": "[1]; [12]", "value": "further increased"},
      {"measurement": "increase of secreted Aβ42 over vehicle-treated cells", "setting": "[2]", "value": 126, "unit": "%"},
      {"measurement": "increase of secreted Aβ40 over vehicle-treated cells", "setting": "[6]", "value": 25, "unit": "%"},
      {"measurement": "ABCA1 expression", "setting": "[7]; 1 μM TO-901317 alone", "value": "increased"},
      {"measurement": "ABCA1 expression", "setting": "[7]; [12]", "value": "further increased"}
    ]}
  ]
}
